Laboratory results from PMC6848974 (Science translational medicine, 2019).
“Also recorded” adds a separate entry of the source.

Tests used:
[1] = Plasma PK in cynomolgus macaques; assay type: in vivo; conditions: non-human primates
[2] = PK and PD; assay type: in vivo; conditions: ferrets
[3] = test system: A/California/07/2009 (H1N1); set-up: species or system ferrets; conditions: in vivo
[4] = test system: A/Wisconsin/67/2005 (H3N2); set-up: species or system ferrets; conditions: in vivo
[5] = test system: ferret lung nuclear (TNFα) and mitochondrial (COX15) mRNAs; conditions: in vivo, po, 100 mg/kg
[6] = PK of NHC and EIDD-2801 in mice
[7] = test system: Ca/09, Wi/05, and B/Brisbane/60/2008; test: microbe, parasite or virus in culture; assay type: cell-based, human airway epithelia
[8] = test system: Ca/09; test: cells; assay type: cell-based, human airway epithelia
[9] = test system: well-differentiated human airway epithelia
[10] = test system: HBTECs mitochondrial (COX1) and nuclear (SDH-A) protein expression
[11] = in vitro; conditions: human
[12] = test system: HBTEC nuclear (SDH-A) and mitochondrial (COX1) mRNAs; test: Transitions in host mRNA of HBTECs; conditions: 72 hours

Structure (SMILES): CC(C)C(=O)OC[C@H]1O[C@@H](n2ccc(NO)nc2=O)[C@H](O)[C@@H]1O [EIDD-2801]
- oral bioavailability compared to NHC [1]: increased oral bioavailability
- oral bioavailability compared to NHC ([2]; oral): increased oral bioavailability
- tolerability (phenotypically appreciable adverse effects) ([2]; seven b.i.d. oral doses at 100 mg/kg): well tolerated
- drug accumulation on repeat dosing ([2]; single versus multi-dose oral b.i.d.): does not lead to drug accumulation
- cellular infiltrates in nasal cavities and blood lymphocyte counts [3]: remained unchanged
- duration of fever [3]: shortened; also recorded: significantly (P <0.0001 and P = 0.03, respectively) reduced
- reduction of shed viral titers [3]: ≥ 4 orders of magnitude
- reduction of tissue (nasal turbinate) viral titers [3]: more than 4 orders of magnitude
- relative cytokine and CXCL10 induction [3]: significantly lowered
- shed virus load [3]: dropped by several orders of magnitude; also recorded: significantly (P <0.0001 and P = 0.03, respectively) reduced
- shed virus load in nasal lavages [3]: at or below limit of detection
- time at which fever started to decline [3]: approximately 1.5 days after infection
- viral titers in bronchioalveolar lavages and lung tissue [3]: significantly reduced
- virus burden in nasal turbinates and tracheas [3]: reduction of several orders of magnitude
- virus in lung sections by immunohistochemistry [3]: immunohistochemically undetectable
- reduction of shed viral titers [4]: ≥ 4 orders of magnitude
- shed virus load in nasal lavages [4]: at or below limit of detection
- tissue (nasal turbinate) viral titers [4]: undetectable
- transition frequencies in nuclear and mitochondrial message versus vehicle [5]: indistinguishable
- hydrolysis in vivo after absorption (only free NHC detected in plasma) [6]: efficiently hydrolyzed

Structure (SMILES): O=c1nc(NO)ccn1[C@@H]1O[C@H](CO)[C@@H](O)[C@H]1O [NHC, N^4-hydroxycytidine]
- EC50 in human epithelia lower than in immortalized cell lines [7]: 25-50 fold
- EC99 [7]: 0.15 to 0.25 µM
- antiviral effect in infected differentiated epithelia [7]: sterilizing
- robust efficacy threshold [7]: approximately 0.2 μM
- EC50 ([7]; Influenza A virus, in Homo sapiens, 72 h): 60 to 80 nM
- apically released virus load [8]: significantly reduced
- cytotoxicity threshold [9]: ~50 µM
- impact on mitochondrial versus nuclear protein expression [10]: significantly greater
- CC50 [11]: 137 µM
- off-target effects (transition mutations in host mRNAs) ([12]; 1.8 μM NHC): no off-target effects
- transition mutations in host mRNAs ([12]; higher NHC concentrations (50 μM, 10 μM)): increased C to U and U to C transitions

Structure (SMILES): CCC(CC)O[C@@H]1C=C(C(=O)O)C[C@H](N)[C@H]1NC(C)=O [oseltamivir carboxylate, reference compound]
- EC50 ([8]; Homo sapiens, 72 h): 190 nM

Structure (SMILES): CCOC(=O)C1=C[C@@H](OC(CC)CC)[C@H](NC(C)=O)[C@@H](N)C1 [oseltamivir, oseltamivir-phosphate, reference compound]
- bronchiolar inflammation in lung sections versus EIDD-2801 therapeutic groups [3]: more pronounced
- inhibitory effect on shed virus titer [3]: no significant (P ≥0.13) inhibitory effect
